This is an account of results in PubChem BioAssay AID328 (DTP/NCI, 2004).

“And” between values parts separate entries of the source, which are not always exact repeats. Equal entries are not always repeated. Toxic doses and inconclusive results are not listed.

The test system of the assay is BDF1 mice, P388 leukemia ip, median survival T/C. Briefly: NCI In Vivo Anticancer Drug Screen. Data for tumor model P388 Leukemia (intraperitoneal) in B6D2F1 (BDF1) mice. The following applies: endpoint: median survival time, higher = longer survival. An outline of the steps: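 Each value expresses how treatment altered survival: treated-mouse outcome over vehicle-mouse outcome, both groups bearing the transplanted tumour.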

[1] abbreviates: dose: 50.0 mg/kg/injection, schedule: Q01DX009 (ip), vehicle: saline with Tween-80.
[2] abbreviates: dose: 100.0 mg/kg/injection, schedule: Q01DX009 (ip), vehicle: saline with Tween-80.
Where [3] appears, read: dose: 100.0 mg/kg/injection, schedule: Q04DX003 (ip), vehicle: saline with Tween-80.
The mark [4] stands for this setting: dose: 200.0 mg/kg/injection, schedule: Q01DX009 (ip), vehicle: saline with Tween-80.
The mark [5] stands for this setting: dose: 200.0 mg/kg/injection, schedule: Q04DX003 (ip), vehicle: saline with Tween-80.
The mark [6] stands for this setting: dose: 400.0 mg/kg/injection, schedule: Q04DX003 (ip), vehicle: saline with Tween-80.
[7] abbreviates: dose: 100.0 mg/kg/injection, schedule: Q04DX003 (ip), vehicle: saline.
Where [8] appears, read: dose: 200.0 mg/kg/injection, schedule: Q04DX003 (ip), vehicle: saline.
Setting [9] is: dose: 400.0 mg/kg/injection, schedule: Q04DX003 (ip), vehicle: saline.
[10] abbreviates: dose: 25.0 mg/kg/injection, schedule: Q01DX009 (ip), vehicle: saline.
Where [11] appears, read: dose: 50.0 mg/kg/injection, schedule: Q01DX009 (ip), vehicle: saline.
Setting [12] is: dose: 50.0 mg/kg/injection, schedule: Q04DX003 (ip), vehicle: saline.
Setting [13] is: dose: 100.0 mg/kg/injection, schedule: Q01DX009 (ip), vehicle: saline.

In the case of `CC1C(=O)OC2CC[N+]3([O-])CC=C(COC(=O)C(C)(O)C1(C)O)C23` (stereo not drawn), the T/C is 100 % of control (dose: 100.0 mg/kg/injection, schedule: Q01DX010 (ip), vehicle: saline) and 110 % of control (dose: 400.0 mg/kg/injection, schedule: Q01DX010 (ip), vehicle: saline).

Turning to `CCCN([Si](C)(C)C)[Si](C)(C)C`, the T/C under setting [1] is 107 % of control; the T/C under setting [2] is 107 % of control; the T/C under setting [3] was 100 % of control; the T/C under setting [4] was 100 % of control; the T/C under setting [5] was 104 % of control.

In the case of `CCOC(=O)CCC1(C(=O)OCC)Oc2ccc(Cl)cc2C1=O` (stereo not drawn), the T/C under setting [1] is 106 % of control, the T/C under setting [2] is 93 % of control and the T/C under setting [4] was 108 % of control.

On to `Cc1cc2no[n+]([O-])c2cc1C`, for which the T/C was 109 % of control (dose: 50.0 mg/kg/injection, schedule: Q01DX009 (ip), vehicle: Klucel (hydroxypropylcellulose) (HPC)); 109 % of control (dose: 100.0 mg/kg/injection, schedule: Q01DX009 (ip), vehicle: Klucel (hydroxypropylcellulose) (HPC)); 109 % of control (dose: 200.0 mg/kg/injection, schedule: Q01DX009 (ip), vehicle: Klucel (hydroxypropylcellulose) (HPC)).

For the compound `COc1cc(N(CCCl)CCCl)ccc1C=Nc1ccccc1C(=O)O`, the T/C (dose: 5.0 mg/kg/injection, schedule: Q01DX009 (ip), vehicle: saline) is 227 % of control; the T/C (dose: 11.9 mg/kg/injection, schedule: Q04DX003 (ip), vehicle: saline with Tween-80) is 237 % of control; the T/C (dose: 18.0 mg/kg/injection, schedule: Q04DX003 (ip), vehicle: saline with Tween-80) was 254 % of control; the T/C (dose: 27.0 mg/kg/injection, schedule: Q04DX003 (ip), vehicle: saline with Tween-80) was 116 % of control.

Take `COC(=O)C12OCC34C(CC5C(C)=C(O)C(=O)CC5(C)C3C(O)C1O)OC(=O)C(O)C24` (stereo not drawn): the T/C reads like this: (dose: 5.0 micrograms/kg/injection, schedule: Q01DX009 (ip), vehicle: saline) 100 % of control; (dose: 10.0 micrograms/kg/injection, schedule: Q01DX009 (ip), vehicle: saline) 109 % of control; (dose: 20.0 micrograms/kg/injection, schedule: Q01DX009 (ip), vehicle: saline) 118 % of control.

Consider `NS(=O)(=O)c1cc([N+](=O)[O-])ccc1Cl`, for which the T/C runs as follows: (dose: 100.0 mg/kg/injection, schedule: Q04DX003 (ip), vehicle: Klucel (hydroxypropylcellulose) (HPC)) 100 % of control; (dose: 200.0 mg/kg/injection, schedule: Q04DX003 (ip), vehicle: Klucel (hydroxypropylcellulose) (HPC)) 108 % of control.

With `CCCNC(=O)Nc1ccc(C)cc1C`, the T/C by setting is: under setting [3], 100 % of control; under setting [5], 95 % of control; under setting [6], 100 % of control.

In the case of `COC(OC)c1[nH]c(=S)[nH]c(=O)c1Cc1ccccc1`, the T/C was 104 % of control under setting [3], 112 % of control under setting [5] and 112 % of control under setting [6].

Consider `C#CC1(OCC(O)CCl)CCCCC1` (stereo not drawn), for which the T/C under setting [2] was 116 % of control; the T/C under setting [7] was 110 % of control; the T/C under setting [4] is 104 % of control; the T/C under setting [8] is 120 % of control; the T/C under setting [9] is 100 % of control.

As for `O=C(/C=C/c1c(Cl)cccc1Cl)c1ccc(Cl)cc1`, the T/C under setting [2] was 86 % of control; the T/C under setting [4] was 90 % of control; the T/C (dose: 400.0 mg/kg/injection, schedule: Q01DX009 (ip), vehicle: saline with Tween-80) is 104 % of control.

In the case of `COc1ccc(NC(=O)C(C)C(C)=O)cc1` (stereo not drawn), the T/C is 91 % of control (dose: 12.5 mg/kg/injection, schedule: Q01DX009 (ip), vehicle: saline); 94 % of control under setting [10]; 102 % of control (dose: 25.0 mg/kg/injection, schedule: Q04DX003 (ip), vehicle: saline); 98 % of control under setting [11]; 93 % of control under setting [12]; 116 % of control under setting [13]. The T/C runs as follows: under setting [7], 100 % of control; (dose: 200.0 mg/kg/injection, schedule: Q01DX009 (ip), vehicle: saline) 100 % of control; under setting [8], 109 % of control; (dose: 400.0 mg/kg/injection, schedule: Q01DX009 (ip), vehicle: saline) 108 % of control; under setting [9], 111 % of control.

For the compound `COc1cc(NS(C)(=O)=O)ccc1Nc1c2ccc(Cl)cc2nc2c(OC)cccc12`, the T/C is, setting by setting: (dose: 0.8 mg/kg/injection, schedule: Q01DX005 (iv), vehicle: water) 106 % of control; (dose: 0.8 mg/kg/injection, schedule: Q04DX003 (iv), vehicle: water) 105 % of control; (dose: 1.6 mg/kg/injection, schedule: Q01DX005 (iv), vehicle: water) 99 % of control; (dose: 1.6 mg/kg/injection, schedule: Q04DX003 (iv), vehicle: water) 100 % of control; (dose: 3.3 mg/kg/injection, schedule: Q01DX005 (iv), vehicle: water) 114 % of control; (dose: 3.3 mg/kg/injection, schedule: Q04DX003 (iv), vehicle: water) 109 % of control. In addition, the T/C was 124 % of control (dose: 6.5 mg/kg/injection, schedule: Q04DX003 (iv), vehicle: water); 95 % of control (dose: 12.5 mg/kg/injection, schedule: Q01DX009 (ip), vehicle: saline with Tween-80); 250 % of control (dose: 26.0 mg/kg/injection, schedule: Q04DX003 (iv), vehicle: water).

For the compound `O=C1CSc2ccccc2N1`, the T/C (dose: 50.0 mg/kg/injection, schedule: Q01DX001 (ip), vehicle: Klucel (hydroxypropylcellulose) (HPC)) is 109 % of control; the T/C (dose: 100.0 mg/kg/injection, schedule: Q01DX001 (ip), vehicle: Klucel (hydroxypropylcellulose) (HPC)) is 100 % of control; the T/C (dose: 200.0 mg/kg/injection, schedule: Q01DX001 (ip), vehicle: Klucel (hydroxypropylcellulose) (HPC)) was 116 % of control.

As to `Cc1ccsc1/C=N/NC(N)=S`, the T/C (dose: 50.0 mg/kg/injection, schedule: Q04DX003 (ip), vehicle: saline with Tween-80) was 117 % of control; the T/C under setting [3] was 117 % of control; the T/C under setting [5] was 115 % of control; the T/C under setting [6] is 92 % of control.

On to `COc1cc2cc3cc4cc(OC)c(OC)cc4c(C)[n+]3cc2cc1OC` (tested in a mixture with another compound), for which the T/C (dose: 10.0 mg/kg/injection, schedule: Q01DX009 (ip), vehicle: Klucel (hydroxypropylcellulose) (HPC)) is 163 % of control; the T/C (dose: 20.0 mg/kg/injection, schedule: Q01DX009 (ip), vehicle: Klucel (hydroxypropylcellulose) (HPC)) was 155 % of control; the T/C (dose: 20.0 mg/kg/injection, schedule: Q01DX009 (ip), vehicle: saline) was 180 % of control; the T/C (dose: 40.0 mg/kg/injection, schedule: Q01DX009 (ip), vehicle: Klucel (hydroxypropylcellulose) (HPC)) is 163 % of control; the T/C (dose: 40.0 mg/kg/injection, schedule: Q01DX009 (ip), vehicle: saline) is 150 % of control; the T/C (dose: 40.0 mg/kg/injection, schedule: Q04DX003 (ip), vehicle: saline) was 154 % of control and 166 % of control. The T/C is, setting by setting: (dose: 80.0 mg/kg/injection, schedule: Q01DX009 (ip), vehicle: Klucel (hydroxypropylcellulose) (HPC)) 163 % of control; (dose: 80.0 mg/kg/injection, schedule: Q01DX009 (ip), vehicle: saline) 180 % of control; (dose: 80.0 mg/kg/injection, schedule: Q04DX003 (ip), vehicle: saline) 157 % of control; (dose: 120.0 mg/kg/injection, schedule: Q01DX009 (ip), vehicle: saline) 150 % of control; (dose: 160.0 mg/kg/injection, schedule: Q01DX009 (ip), vehicle: Klucel (hydroxypropylcellulose) (HPC)) 154 % of control; (dose: 160.0 mg/kg/injection, schedule: Q01DX009 (ip), vehicle: saline) 200 % of control. For the same compound, the T/C runs as follows: (dose: 160.0 mg/kg/injection, schedule: Q04DX003 (ip), vehicle: saline) 154 % of control; (dose: 168.0 mg/kg/injection, schedule: Q04DX003 (ip), vehicle: saline) 99 % of control; (dose: 250.0 mg/kg/injection, schedule: Q04DX003 (ip), vehicle: saline) 92 % of control.

In the case of `NC1(CO)COC(c2ccccc2)OC1` (stereo not drawn), the T/C was 100 % of control and 105 % of control under setting [10]; 105 % of control and 118 % of control under setting [11]; 97 % of control and 98 % of control and 109 % of control under setting [12]; 100 % of control and 107 % of control under setting [13]; 100 % of control and 102 % of control under setting [7].
